Laboratory results: patent US9656988B2 (Pharmacyclics LLC, priority 2013, dated 2017)
Read-outs that look alike come from different tables or passages of the source.

Target: BTK (Homo sapiens (Human), UniProt Q06187)
Test: Btk in vitro inhibitory activity (one of Method A TR-FRET, Method B electrophoretic mobility shift, Method C radiometric filter binding)
Format: biochemical
[1] = determined using one of the methods of Example 355a, 355b and 355c, read-out: BTK IC50

Sequence of BTK (Q06187 whole entry): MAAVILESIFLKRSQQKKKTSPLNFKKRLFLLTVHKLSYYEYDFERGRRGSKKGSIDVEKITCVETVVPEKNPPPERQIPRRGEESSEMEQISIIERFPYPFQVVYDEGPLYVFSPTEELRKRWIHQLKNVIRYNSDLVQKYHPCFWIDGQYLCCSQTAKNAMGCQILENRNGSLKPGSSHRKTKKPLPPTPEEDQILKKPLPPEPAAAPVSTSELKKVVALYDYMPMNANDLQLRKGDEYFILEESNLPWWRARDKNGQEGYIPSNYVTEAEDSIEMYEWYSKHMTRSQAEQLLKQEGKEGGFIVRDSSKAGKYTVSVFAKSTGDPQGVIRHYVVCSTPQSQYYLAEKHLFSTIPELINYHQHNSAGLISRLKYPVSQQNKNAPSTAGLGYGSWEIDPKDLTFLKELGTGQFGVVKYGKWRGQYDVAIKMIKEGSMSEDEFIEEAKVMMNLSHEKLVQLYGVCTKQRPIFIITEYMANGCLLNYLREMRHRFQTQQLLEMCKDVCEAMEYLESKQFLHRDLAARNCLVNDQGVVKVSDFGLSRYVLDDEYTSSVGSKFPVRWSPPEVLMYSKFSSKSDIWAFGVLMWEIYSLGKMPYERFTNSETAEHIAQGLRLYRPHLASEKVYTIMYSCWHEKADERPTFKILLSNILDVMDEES

Row | IC50 [1] [nM] | IC50 (read-out: Btk (IC50)) [nM] | Compound | IC50 [nM]
1 | < 10 | – | COc1ccc(C(=O)N[C@@H]2CCCN(c3nnc(C(N)=O)c(Nc4ccc(C5CCNCC5)cc4)n3)C2)cc1 [Example 333, (R)-3-(3-(4-methoxybenzamido)piperidin-1-yl)-5-(4-(piperidin-4-yl)phenylamino)-1,2,4-triazine-6-carboxamide] | –
2 | < 10 | – | COc1ccc(C(=O)N[C@@H]2CCCN(c3nnc(C(N)=O)c(Nc4ccc(C5CCN(C6CCCC6)CC5)cc4)n3)C2)cc1 [Example 334, (R)-5-(4-(1-cyclopentylpiperidin-4-yl)phenylamino)-3-(3-(4-methoxybenzamido)piperidin-1-yl)-1,2,4-triazine-6-carboxamide] | –
3 | < 10 | – | NC(=O)c1nnc(N2CCC[C@@H](NC(=O)N3CCCCC3)C2)nc1Nc1ccc(C2CCNCC2)cc1 [Example 335, (R)-5-(4-(piperidin-4-yl)phenylamino)-3-(3-(piperidine-1-carboxamido)piperidin-1-yl)-1,2,4-triazine-6-carboxamide] | –
4 | < 10 | < 10 | NC(=O)c1nnc(N2CCC[C@@H](NC(=O)N3CCCCC3)C2)nc1Nc1ccc(C2CCN(C3CCCC3)CC2)cc1 [Example 336, (R)-5-(4-(1-cyclopentylpiperidin-4-yl)phenylamino)-3-(3-(piperidine-1-carboxamido)piperidin-1-yl)-1,2,4-triazine-6-carboxamide] | –
5 | < 10 | < 10 | NC(=O)c1nnc(N2CCC[C@@H](NC(=O)N3CCCCC3)C2)nc1Nc1ccc(C2CCN(C=O)CC2)cc1 [Example 337, (R)-5-(4-(1-formylpiperidin-4-yl)phenylamino)-3-(3-(piperidine-1-carboxamido)piperidin-1-yl)-1,2,4-triazine-6-carboxamide] | –
6 | < 10 | < 10 | CC(=O)N1CCC(c2ccc(Nc3nc(N4CCC[C@@H](NC(=O)N5CCCCC5)C4)nnc3C(N)=O)cc2)CC1 [Example 338, (R)-5-(4-(1-acetylpiperidin-4-yl)phenylamino)-3-(3-(piperidine-1-carboxamido)piperidin-1-yl)-1,2,4-triazine-6-carboxamide] | –
7 | < 10 | < 10 | CCC(=O)N1CCC(c2ccc(Nc3nc(N4CCC[C@@H](NC(=O)N5CCCCC5)C4)nnc3C(N)=O)cc2)CC1 [Example 339, (R)-3-(3-(piperidine-1-carboxamido)piperidin-1-yl)-5-(4-(1-propionylpiperidin-4-yl)phenylamino)-1,2,4-triazine-6-carboxamide] | –
8 | < 10 | – | C=CC(=O)N1CCC(c2ccc(Nc3nc(N4CCC[C@@H](NC(=O)N5CCCCC5)C4)nnc3C(N)=O)cc2)CC1 [Example 340] | –
9 | 10 to 100 | 10 to 100 | CCOc1ccc(C(=O)N[C@@H]2CCCN(c3nnc(C(N)=O)c(Nc4ccc(C(=N)N(C)C)cc4)n3)C2)cc1 [Example 342, (R)-5-(4-(N,N-dimethylcarbamimidoyl)phenylamino)-3-(3-(4-ethoxybenzamido)piperidin-1-yl)-1,2,4-triazine-6-carboxamide] | –
10 | < 10 | < 10 | CCOc1ccc(C(=O)N[C@@H]2CCCN(c3nnc(C(N)=O)c(Nc4ccc(C(=N)N5CCCC5)cc4)n3)C2)cc1 [Example 343, (R)-3-(3-(4-ethoxybenzamido)piperidin-1-yl)-5-(4-(imino(pyrrolidin-1-yl)methyl)phenylamino)-1,2,4-triazine-6-carboxamide] | –
11 | 10 to 100 | – | CCOc1ccc(C(=O)N[C@@H]2CCCN(c3nnc(C(N)=O)c(Nc4ccc(C5=NCCN5C)cc4)n3)C2)cc1 [Example 344, (R)-3-(3-(4-ethoxybenzamido)piperidin-1-yl)-5-(4-(1-methyl-4,5-dihydro-1H-imidazol-2-yl)phenylamino)-1,2,4-triazine-6-carboxamide] | –
12 | 10 to 100 | – | COCCOc1ccc(Nc2nc(N3CCC[C@@H](NC(=O)N[C@@H](C)c4ccccc4)C3)cnc2C(N)=O)cc1 [Example 346, 3-(4-(2-methoxyethoxy)phenylamino)-5-((R)-3-(3-((S)-1-phenylethyl)ureido)piperidin-1-yl)pyrazine-2-carboxamide] | –
13 | 10 to 100 | – | COCCOc1ccc(Nc2nc(N3CCC[C@@H](NC(=O)N[C@H](C)c4ccccc4)C3)cnc2C(N)=O)cc1 [Example 347, 3-(4-(2-methoxyethoxy)phenylamino)-5-((R)-3-(3-((R)-1-phenylethyl)ureido)piperidin-1-yl)pyrazine-2-carboxamide] | –
14 | 10 to 100 | – | Cc1cc(Nc2nc(N[C@@H]3CCCCN(C(=O)N(C)C)C3)cnc2C(N)=O)sn1 [Example 348, (R)-3-(5-carbamoyl-6-(3-methylisothiazol-5-ylamino)pyrazin-2-ylamino)-N,N-dimethylazepane-1-carboxamide] | –
15 | 1000 to 10000 | – | CN(C(=O)N[C@@H]1CCCN(c2cnc(C(N)=O)c(NC3CC3)n2)C1)c1ccccc1 [Example 350, (R)-3-(cyclopropylamino)-5-(3-(3-methyl-3-phenylureido)piperidin-1-yl)pyrazine-2-carboxamide] | –
16 | 1000 to 10000 | – | CN(C(=O)N[C@@H]1CCCN(c2cnc(C(N)=O)c(NC3CCCC3)n2)C1)c1ccccc1 [Example 351, (R)-3-(cyclopentylamino)-5-(3-(3-methyl-3-phenylureido)piperidin-1-yl)pyrazine-2-carboxamide] | –
17 | 1000 to 10000 | – | CN(C(=O)N[C@@H]1CCCN(c2cnc(C(N)=O)c(NC3CC3)n2)C1)c1cc(Cl)cc(C(F)(F)F)c1 [Example 352, (R)-5-(3-(3-(3-chloro-5-(trifluoromethyl)phenyl)-3-methylureido)piperidin-1-yl)-3-(cyclopropylamino)pyrazine-2-carboxamide] | –
18 | 1000 to 10000 | – | CN(C(=O)N[C@@H]1CCCN(c2cnc(C(N)=O)c(NC3CCOCC3)n2)C1)c1cc(Cl)cc(C(F)(F)F)c1 [Example 353, (R)-5-(3-(3-(3-chloro-5-(trifluoromethyl)phenyl)-3-methylureido)piperidin-1-yl)-3-(tetrahydro-2H-pyran-4-ylamino)pyrazine-2-carboxamide] | –
19 | 1000 to 10000 | – | NC(=O)c1ncc(N2CCC[C@@H](NC(=O)NC3CCOCC3)C2)nc1NC1CCOCC1 [Example 354, (R)-5-(3-(3-(tetrahydro-2H-pyran-4-yl)ureido)piperidin-1-yl)-3-(tetrahydro-2H-pyran-4-ylamino)pyrazine-2-carboxamide] | –

Row | Compound | IC50 [1] [nM] | IC50 (read-out: Btk (IC50)) [nM] | IC50 [nM]
20 | N#CCC(=O)N1CCC(c2ccc(Nc3nc(N4CCC[C@@H](NC(=O)N5CCCCC5)C4)nnc3C(N)=O)cc2)CC1 [Example 341, (R)-5-(4-(1-(2-cyanoacetyl)piperidin-4-yl)phenylamino)-3-(3-(piperidine-1-carboxamido)piperidin-1-yl)-1,2,4-triazine-6-carboxamide] | < 10 | – | 10 to 100
